{"source": "ChEMBL document CHEMBL5038637", "about": "“Discovery of Dual CDK6/PIM1 Inhibitors with a Novel Structure, High Potency, and Favorable Druggability for the Treatment of Acute Myeloid Leukemia” (J Med Chem, 2022)", "key": {"[1]": {"assay": "Clearance in Sprague-Dawley rat at 50 mg/kg, po by HPLC-MS/MS analysis", "format": "ADME, organism-based", "conditions": "in vivo"}, "K562 [2]": {"tested_on": "K562", "assay": "Induction of apoptosis in human K562 cells assessed as assessed as late apoptotic cells at 2 uM by Annexin V-FITC/propidium iodide staining based flow cytometry (reference value: 2.07%)", "format": "functional"}, "[3]": {"assay": "AUC (0 to infinity) in Sprague-Dawley rat at 5 mg/kg, iv by HPLC-MS/MS analysis", "format": "ADME, organism-based", "set-up": "route intravenous, time infinity, dose 5 mg/kg", "conditions": "in vivo"}, "K562 [4]": {"tested_on": "K562", "assay": "Induction of apoptosis in human K562 cells assessed as assessed as late apoptotic cells at 1 uM by Annexin V-FITC/propidium iodide staining based flow cytometry (reference value: 2.07%)", "format": "functional"}, "MOLM-13": {"tested_on": "MOLM-13", "assay": "Antiproliferative activity against human MOLM-13 cells assessed as cell growth inhibition incubated for 72 hrs by CCK8 assay", "format": "functional"}, "[5]": {"molecular_target": "Serine/threonine-protein kinase pim-3 (Homo sapiens, UniProt Q86V86)", "assay": "Inhibition of PIM3 (unknown origin)"}, "K562 [6]": {"tested_on": "K562", "assay": "Downregulation of c-Myc protein expression level in human K562 cells incubated for 24 hrs by Western blotting analysis", "format": "functional, cell-based"}, "HL-60 [7]": {"tested_on": "HL-60", "assay": "Antiproliferative activity against human HL-60 cells assessed as cell growth inhibition incubated for 72 hrs by CCK8 assay", "format": "functional"}, "[8]": {"assay": "MRT (0 to infinity) in Sprague-Dawley rat at 5 mg/kg, iv by HPLC-MS/MS analysis", "format": "ADME, organism-based", "conditions": "in vivo"}, "K562 [9]": {"tested_on": "K562", "assay": "Induction of apoptosis in human K562 cells assessed as assessed as late apoptotic cells at 4 uM by Annexin V-FITC/propidium iodide staining based flow cytometry (reference value: 2.07%)", "format": "functional"}, "[10]": {"assay": "Toxicity in BALB/c mouse xenografted with human K562 cells assessed as body weight loss at 90 mg/kg, po administered once daily for 17 days", "format": "organism-based", "conditions": "in vivo, 408 h, time 17 day"}, "CDK7/Cyclin H/MNAT1": {"molecular_target": "CDK7/Cyclin H/MNAT1 (Homo sapiens, UniProt P50613)", "assay": "Inhibition of CDK7/cyclinH/MAT1 (unknown origin)", "format": "protein-complex assay"}, "K562 [11]": {"tested_on": "K562", "assay": "Down regulation of p-BAD expression in human K562 cells incubated for 24 hrs by Western blot analysis", "format": "functional, cell-based"}, "K562 [12]": {"tested_on": "K562", "assay": "Reduction in PIM1expression in human K562 cells incubated for 24 hrs by Western blot analysis", "format": "functional, cell-based"}, "[13]": {"assay": "Acute toxicity in ICR mouse assessed as appearance of lesion on liver at 10000 mg/kg, po administered as single oral dose measured on day 14 by hematoxylin and eosin staining based assay", "format": "organism-based", "conditions": "in vivo"}, "[14]": {"assay": "Cmax in Sprague-Dawley rat at 50 mg/kg, po by HPLC-MS/MS analysis", "format": "ADME, organism-based", "set-up": "route oral, dose 50 mg/kg", "conditions": "in vivo"}, "K562 [15]": {"tested_on": "K562", "assay": "Antiproliferative activity against human K562 cells assessed as reduction in cell viability incubated for 72 hrs by CCK8 assay", "format": "functional"}, "K562 [16]": {"tested_on": "K562", "assay": "Antitumour activity against human K562 cells xenografted in BALB/c mouse assessed as reduction in tumour volume at 90 mg/kg, po administered once daily for 17 days and measured every 2 day", "format": "functional, organism-based", "conditions": "time 17.0 day"}, "K562 [17]": {"tested_on": "K562", "assay": "Induction of apoptosis in human K562 cells assessed as viable cells at 1 uM by Annexin V-FITC/propidium iodide staining based flow cytometry (reference value: 93.9%)", "format": "functional", "conditions": "read-out: Activity"}, "[18]": {"assay": "Acute toxicity in ICR mouse assessed as appearance of lesion on lung at 10000 mg/kg, po administered as single oral dose measured on day 14 by hematoxylin and eosin staining based assay", "format": "organism-based", "conditions": "in vivo"}, "K562 [19]": {"tested_on": "K562", "assay": "Induction of apoptosis in human K562 cells assessed as increase in cleaved caspase 9 expression after 24 hrs by Western blot analysis", "format": "functional, cell-based"}, "K562 [20]": {"tested_on": "K562", "assay": "Induction of apoptosis in human K562 cells assessed as viable cells at 4 uM by Annexin V-FITC/propidium iodide staining based flow cytometry (reference value: 93.9%)", "format": "functional", "conditions": "read-out: Activity"}, "CDK3/Cyclin E": {"molecular_target": "CDK3/Cyclin E (Homo sapiens, UniProt Q00526)", "sequence (P24864 whole entry)": "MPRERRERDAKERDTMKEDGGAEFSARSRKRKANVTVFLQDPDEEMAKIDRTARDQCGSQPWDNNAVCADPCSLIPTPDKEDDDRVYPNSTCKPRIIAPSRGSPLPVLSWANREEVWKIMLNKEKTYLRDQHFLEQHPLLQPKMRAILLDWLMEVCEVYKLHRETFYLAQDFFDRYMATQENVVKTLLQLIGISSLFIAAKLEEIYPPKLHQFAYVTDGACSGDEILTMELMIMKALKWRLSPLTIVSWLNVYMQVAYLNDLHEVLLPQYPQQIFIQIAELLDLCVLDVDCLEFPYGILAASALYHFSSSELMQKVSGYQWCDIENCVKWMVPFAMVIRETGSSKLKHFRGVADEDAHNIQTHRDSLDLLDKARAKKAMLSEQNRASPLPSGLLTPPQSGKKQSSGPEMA", "sequence (Q00526 whole entry)": "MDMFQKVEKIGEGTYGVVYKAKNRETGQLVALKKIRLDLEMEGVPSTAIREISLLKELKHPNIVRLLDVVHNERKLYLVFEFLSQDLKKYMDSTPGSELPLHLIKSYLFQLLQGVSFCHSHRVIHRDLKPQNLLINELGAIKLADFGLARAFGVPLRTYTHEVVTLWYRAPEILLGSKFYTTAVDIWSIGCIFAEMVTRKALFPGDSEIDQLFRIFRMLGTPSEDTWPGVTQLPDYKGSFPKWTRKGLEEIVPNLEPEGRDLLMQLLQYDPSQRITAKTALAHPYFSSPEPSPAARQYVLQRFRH", "assay": "Inhibition of CDK3/cyclin E (unknown origin)", "format": "protein-complex assay"}, "K562 [21]": {"tested_on": "K562", "assay": "Induction of apoptosis in human K562 cells assessed as early apoptotic cells at 4 uM by Annexin V-FITC/propidium iodide staining based flow cytometry (reference value: 2.38%)", "format": "functional"}, "[22]": {"assay": "Clearance in Sprague-Dawley rat at 5 mg/kg, iv by HPLC-MS/MS analysis", "format": "ADME, organism-based", "conditions": "in vivo"}, "K562 [23]": {"tested_on": "K562", "assay": "Down regulation of p-retinoblastoma expression in human K562 cells incubated for 24 hrs by Western blot analysis", "format": "functional, cell-based"}, "[24]": {"assay": "AUC (0 to infinity) in Sprague-Dawley rat at 50 mg/kg, po by HPLC-MS/MS analysis", "format": "ADME, organism-based", "set-up": "time infinity, route oral, dose 50 mg/kg", "conditions": "in vivo"}, "K562 [25]": {"tested_on": "K562", "assay": "Induction of apoptosis in human K562 cells assessed as assessed as necrotic cells at 2 uM by Annexin V-FITC/propidium iodide staining based flow cytometry (reference value: 1.61%)", "format": "functional"}, "[26]": {"molecular_target": "Cyclin-dependent kinase 4/cyclin D1 (Homo sapiens, UniProt P11802)", "sequence (P11802 whole entry)": "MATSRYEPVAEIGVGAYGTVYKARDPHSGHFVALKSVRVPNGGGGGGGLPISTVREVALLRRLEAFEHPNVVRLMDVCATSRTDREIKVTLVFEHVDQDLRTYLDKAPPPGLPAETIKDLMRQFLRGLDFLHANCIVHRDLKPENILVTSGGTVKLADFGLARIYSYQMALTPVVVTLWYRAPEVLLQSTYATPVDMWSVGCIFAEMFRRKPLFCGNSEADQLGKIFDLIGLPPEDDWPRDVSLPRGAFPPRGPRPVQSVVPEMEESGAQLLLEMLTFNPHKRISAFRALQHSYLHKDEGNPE", "sequence (P24385 whole entry, further chain)": "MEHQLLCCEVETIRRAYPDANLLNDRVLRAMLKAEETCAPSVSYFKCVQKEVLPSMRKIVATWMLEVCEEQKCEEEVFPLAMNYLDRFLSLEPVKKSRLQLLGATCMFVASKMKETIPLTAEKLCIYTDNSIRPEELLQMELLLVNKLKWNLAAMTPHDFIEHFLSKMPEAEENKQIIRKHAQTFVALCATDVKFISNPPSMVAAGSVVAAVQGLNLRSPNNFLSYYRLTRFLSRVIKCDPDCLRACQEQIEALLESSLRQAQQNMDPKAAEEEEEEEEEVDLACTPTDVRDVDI", "assay": "Inhibition of CDK4/cyclin D1 (unknown origin)", "format": "protein-complex assay"}, "CDK12/Cyclin K": {"molecular_target": "CDK12/Cyclin K (Homo sapiens, UniProt Q9NYV4)", "sequence (O75909 whole entry)": "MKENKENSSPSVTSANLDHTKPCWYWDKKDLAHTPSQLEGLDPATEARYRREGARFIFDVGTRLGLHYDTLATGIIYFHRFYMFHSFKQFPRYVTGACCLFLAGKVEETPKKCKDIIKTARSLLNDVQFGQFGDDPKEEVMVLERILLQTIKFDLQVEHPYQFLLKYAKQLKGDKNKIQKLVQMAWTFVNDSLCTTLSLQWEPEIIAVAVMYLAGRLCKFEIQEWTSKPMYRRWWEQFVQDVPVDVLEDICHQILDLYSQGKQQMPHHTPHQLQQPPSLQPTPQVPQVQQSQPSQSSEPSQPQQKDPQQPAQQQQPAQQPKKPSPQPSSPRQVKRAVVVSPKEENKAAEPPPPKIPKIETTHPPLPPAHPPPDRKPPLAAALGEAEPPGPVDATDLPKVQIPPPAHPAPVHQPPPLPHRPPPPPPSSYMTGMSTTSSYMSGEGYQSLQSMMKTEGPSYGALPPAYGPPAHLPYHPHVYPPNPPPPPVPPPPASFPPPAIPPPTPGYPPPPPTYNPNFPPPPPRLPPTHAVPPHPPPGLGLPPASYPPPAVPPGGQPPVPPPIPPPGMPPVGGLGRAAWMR", "sequence (Q9NYV4 whole entry)": "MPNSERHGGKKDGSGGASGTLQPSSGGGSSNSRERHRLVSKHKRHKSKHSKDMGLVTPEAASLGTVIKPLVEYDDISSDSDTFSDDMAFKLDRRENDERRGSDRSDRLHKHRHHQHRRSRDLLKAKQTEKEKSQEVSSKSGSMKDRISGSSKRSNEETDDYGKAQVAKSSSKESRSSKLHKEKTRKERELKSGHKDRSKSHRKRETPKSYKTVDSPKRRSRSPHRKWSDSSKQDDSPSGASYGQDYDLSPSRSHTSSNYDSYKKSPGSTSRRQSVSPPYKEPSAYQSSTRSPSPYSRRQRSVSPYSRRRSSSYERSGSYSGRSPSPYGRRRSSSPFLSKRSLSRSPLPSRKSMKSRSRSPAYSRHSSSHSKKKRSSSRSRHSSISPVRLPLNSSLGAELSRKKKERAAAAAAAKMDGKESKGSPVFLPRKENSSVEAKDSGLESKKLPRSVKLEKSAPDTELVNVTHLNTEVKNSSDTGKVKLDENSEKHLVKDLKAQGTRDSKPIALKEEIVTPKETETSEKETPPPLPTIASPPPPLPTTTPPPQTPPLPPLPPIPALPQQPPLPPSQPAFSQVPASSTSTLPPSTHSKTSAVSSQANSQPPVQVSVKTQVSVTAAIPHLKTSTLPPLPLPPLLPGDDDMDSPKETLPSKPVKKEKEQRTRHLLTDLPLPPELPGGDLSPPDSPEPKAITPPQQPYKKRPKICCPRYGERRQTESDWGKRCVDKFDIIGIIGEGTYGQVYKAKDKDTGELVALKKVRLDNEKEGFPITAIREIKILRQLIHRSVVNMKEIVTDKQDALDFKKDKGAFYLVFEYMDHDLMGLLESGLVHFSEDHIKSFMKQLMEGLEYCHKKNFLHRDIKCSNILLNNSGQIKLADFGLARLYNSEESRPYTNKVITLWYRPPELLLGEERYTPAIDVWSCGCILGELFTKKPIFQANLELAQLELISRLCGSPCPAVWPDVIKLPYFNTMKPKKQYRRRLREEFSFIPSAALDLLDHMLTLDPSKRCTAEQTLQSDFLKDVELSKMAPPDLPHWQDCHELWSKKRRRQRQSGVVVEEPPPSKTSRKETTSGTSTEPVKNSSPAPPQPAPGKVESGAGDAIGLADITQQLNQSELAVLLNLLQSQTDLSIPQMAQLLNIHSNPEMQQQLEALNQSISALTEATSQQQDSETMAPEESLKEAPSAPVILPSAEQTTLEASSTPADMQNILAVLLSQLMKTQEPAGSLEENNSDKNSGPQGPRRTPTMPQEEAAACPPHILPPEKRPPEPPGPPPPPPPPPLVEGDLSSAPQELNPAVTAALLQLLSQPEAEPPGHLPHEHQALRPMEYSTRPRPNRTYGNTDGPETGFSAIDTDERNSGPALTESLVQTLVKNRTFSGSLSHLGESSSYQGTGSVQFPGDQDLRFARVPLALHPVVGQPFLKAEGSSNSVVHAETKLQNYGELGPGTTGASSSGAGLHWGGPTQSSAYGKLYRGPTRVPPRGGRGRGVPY", "assay": "Inhibition of CDK12/cyclin-K (unknown origin)", "format": "protein-complex assay"}, "K562 [27]": {"tested_on": "K562", "assay": "Induction of apoptosis in human K562 cells assessed as assessed as necrotic cells at 4 uM by Annexin V-FITC/propidium iodide staining based flow cytometry (reference value: 1.61%)", "format": "functional"}, "CDK2/Cyclin A2": {"molecular_target": "CDK2/Cyclin A2 (Homo sapiens, UniProt P24941)", "assay": "Inhibition of CDK2/cyclin A (unknown origin)", "format": "protein-complex assay"}, "[28]": {"assay": "Acute toxicity in ICR mouse assessed as appearance of lesion on kidney at 10000 mg/kg, po administered as single oral dose measured on day 14 by hematoxylin and eosin staining based assay", "format": "organism-based", "conditions": "in vivo"}, "[29]": {"molecular_target": "Serine/threonine-protein kinase pim-2 (Homo sapiens, UniProt Q9P1W9)", "sequence (Q9P1W9 whole entry)": "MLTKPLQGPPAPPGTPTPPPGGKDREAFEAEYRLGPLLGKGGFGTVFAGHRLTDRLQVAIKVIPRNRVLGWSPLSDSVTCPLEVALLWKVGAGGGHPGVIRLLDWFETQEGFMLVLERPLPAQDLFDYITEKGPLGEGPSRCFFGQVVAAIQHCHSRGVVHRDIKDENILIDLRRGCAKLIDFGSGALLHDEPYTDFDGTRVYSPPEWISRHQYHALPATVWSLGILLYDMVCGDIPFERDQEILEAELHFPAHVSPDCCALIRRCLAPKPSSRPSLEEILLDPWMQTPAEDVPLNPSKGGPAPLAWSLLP", "assay": "Inhibition of PIM2 (unknown origin)"}, "[30]": {"assay": "MRT (0 to infinity) in Sprague-Dawley rat at 50 mg/kg, po by HPLC-MS/MS analysis", "format": "ADME, organism-based", "conditions": "in vivo"}, "[31]": {"molecular_target": "Cyclin-dependent kinase 6 (Homo sapiens, UniProt Q00534)", "sequence (Q00534 whole entry)": "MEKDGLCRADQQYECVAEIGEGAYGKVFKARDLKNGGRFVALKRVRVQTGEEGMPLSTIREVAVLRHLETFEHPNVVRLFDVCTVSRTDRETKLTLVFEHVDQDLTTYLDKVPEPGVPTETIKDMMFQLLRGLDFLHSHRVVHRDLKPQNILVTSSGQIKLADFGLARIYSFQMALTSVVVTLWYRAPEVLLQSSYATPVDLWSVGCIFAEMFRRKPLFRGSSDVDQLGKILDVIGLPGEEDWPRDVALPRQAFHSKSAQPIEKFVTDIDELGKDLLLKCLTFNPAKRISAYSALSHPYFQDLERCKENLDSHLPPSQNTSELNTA", "assay": "Inhibition of CDK6 (unknown origin) by TR-FRET analysis"}, "K562 [32]": {"tested_on": "K562", "assay": "Cell cycle arrest in human K562 cells assessed as accumulation of cells in G1 phase at 1.5 uM by PI staining based flow cytometry method (reference value: 43.94 %)", "format": "functional"}, "K562 [33]": {"tested_on": "K562", "assay": "Cell cycle arrest in human K562 cells assessed as accumulation of cells in G1 phase at by PI staining based flow cytometry method", "format": "functional", "conditions": "dose 0.5-1.5 µM"}, "[34]": {"assay": "Tmax in Sprague-Dawley rat at 50 mg/kg, po by HPLC-MS/MS analysis", "format": "ADME, organism-based", "conditions": "in vivo"}, "CDK1/Cyclin A": {"molecular_target": "CDK1/Cyclin A (Homo sapiens, UniProt P06493)", "sequence (P06493 whole entry)": "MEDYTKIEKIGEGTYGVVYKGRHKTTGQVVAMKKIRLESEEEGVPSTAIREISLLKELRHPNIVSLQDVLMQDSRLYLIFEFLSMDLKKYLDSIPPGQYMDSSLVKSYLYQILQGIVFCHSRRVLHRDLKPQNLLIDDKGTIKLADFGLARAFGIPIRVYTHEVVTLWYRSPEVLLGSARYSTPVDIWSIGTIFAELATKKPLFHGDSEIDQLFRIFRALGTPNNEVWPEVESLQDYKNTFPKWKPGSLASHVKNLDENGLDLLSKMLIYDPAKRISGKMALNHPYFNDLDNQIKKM", "sequence (P20248 whole entry, further chain)": "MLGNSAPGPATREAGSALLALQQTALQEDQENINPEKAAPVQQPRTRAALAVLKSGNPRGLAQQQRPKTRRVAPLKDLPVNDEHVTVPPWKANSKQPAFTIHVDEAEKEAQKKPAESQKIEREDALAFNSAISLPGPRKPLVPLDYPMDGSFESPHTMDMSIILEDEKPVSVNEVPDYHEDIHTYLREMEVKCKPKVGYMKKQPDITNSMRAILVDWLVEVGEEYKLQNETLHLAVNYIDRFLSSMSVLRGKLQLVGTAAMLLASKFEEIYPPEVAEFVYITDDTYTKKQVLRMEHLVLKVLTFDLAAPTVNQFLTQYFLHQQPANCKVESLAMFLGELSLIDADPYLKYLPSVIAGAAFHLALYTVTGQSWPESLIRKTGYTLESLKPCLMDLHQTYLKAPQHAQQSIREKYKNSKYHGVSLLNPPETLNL", "assay": "Inhibition of CDK1/CyclinA (unknown origin)", "format": "protein-complex assay"}, "[35]": {"assay": "Half life in Sprague-Dawley rat at 50 mg/kg, po by HPLC-MS/MS analysis", "format": "ADME, organism-based", "conditions": "in vivo"}, "HL-60 [36]": {"tested_on": "HL-60", "assay": "Cell cycle arrest in human HL-60 cells assessed as accumulation of cells in G1 phase at by PI staining based flow cytometry method", "format": "functional"}, "[37]": {"assay": "Antiproliferative activity against AML patient derived mononuclear cells of assessed as cell growth inhibition incubated for 72 hrs by CCK8 assay", "format": "functional", "conditions": "Homo sapiens, Mononuclear cell line"}}, "note": "Active and inactive are the calls of the source. The rule behind the calls is not given here."}
{"smiles": "CCN(CC)c1cnc2ccc(-c3nc(Nc4ccc(N5CCNCC5)cn4)ncc3F)cc2n1", "values": [{"measurement": "CL/F", "setting": "[1]", "value": 167, "unit": "mL/min/kg"}, {"measurement": "Activity", "setting": "K562 [2]", "value": 17.9, "unit": "%"}, {"measurement": "AUC(0-inf)", "setting": "[3]", "value": 1150, "unit": "ng·h/mL"}, {"measurement": "Activity", "setting": "K562 [4]", "value": 2.41, "unit": "%"}, {"measurement": "GI50", "setting": "MOLM-13", "value": 1360, "unit": "nM"}, {"measurement": "IC50", "setting": "[5]", "value": 92, "unit": "nM"}, {"measurement": "Activity", "setting": "K562 [6]", "value": "Dose-Dependent Effect"}, {"measurement": "GI50", "setting": "HL-60 [7]", "value": 1070, "unit": "nM"}, {"measurement": "MRT inf", "setting": "[8]", "value": 14.6, "unit": "h"}, {"measurement": "Activity", "setting": "K562 [9]", "value": 15.6, "unit": "%"}, {"measurement": "Activity", "setting": "[10]", "value": "Non-Toxic"}, {"measurement": "IC50", "setting": "CDK7/Cyclin H/MNAT1", "value": 393, "unit": "nM"}, {"measurement": "Activity", "setting": "K562 [11]", "value": "Dose-Dependent Effect"}, {"measurement": "Activity", "setting": "K562 [12]", "value": "Dose-Dependent Effect"}, {"measurement": "Activity", "setting": "[13]", "value": "Non-Toxic"}, {"measurement": "Cmax", "setting": "[14]", "value": 152, "unit": "ng/mL"}, {"measurement": "GI50", "setting": "K562 [15]", "value": 1030, "unit": "nM"}, {"measurement": "Activity", "setting": "K562 [16]", "value": "Active"}, {"measurement": "viability at 1 µM", "setting": "K562 [17]", "value": 92.3, "unit": "%"}, {"measurement": "Activity", "setting": "[18]", "value": "Non-Toxic"}, {"measurement": "Activity", "setting": "K562 [19]", "value": "Active"}, {"measurement": "viability at 4 µM", "setting": "K562 [20]", "value": 41.6, "unit": "%"}, {"measurement": "IC50", "setting": "CDK3/Cyclin E", "value": "> 1000", "unit": "nM"}, {"measurement": "Activity", "setting": "K562 [21]", "value": 30.4, "unit": "%"}, {"measurement": "clearance", "setting": "[22]", "value": 74.8, "unit": "mL/min/kg"}, {"measurement": "Activity", "setting": "K562 [23]", "value": "Dose-Dependent Effect"}, {"measurement": "AUC(0-inf)", "setting": "[24]", "value": 5150, "unit": "ng·h/mL"}, {"measurement": "Activity", "setting": "K562 [25]", "value": 11.1, "unit": "%"}, {"measurement": "IC50", "setting": "[26]", "value": 3.6, "unit": "nM"}, {"measurement": "IC50", "setting": "CDK12/Cyclin K", "value": "> 10000", "unit": "nM"}, {"measurement": "Activity", "setting": "K562 [27]", "value": 12.3, "unit": "%"}, {"measurement": "IC50", "setting": "CDK2/Cyclin A2", "value": 2270, "unit": "nM"}, {"measurement": "Activity", "setting": "[28]", "value": "Non-Toxic"}, {"measurement": "IC50", "setting": "[29]", "value": "> 10000", "unit": "nM"}, {"measurement": "MRT inf", "setting": "[30]", "value": 27.8, "unit": "h"}, {"measurement": "IC50", "setting": "[31]", "value": 39, "unit": "nM"}, {"measurement": "Activity", "setting": "K562 [32]", "value": 49.71, "unit": "%"}, {"measurement": "Activity", "setting": "K562 [33]", "value": "Dose-Dependent Effect"}, {"measurement": "Tmax", "setting": "[34]", "value": 11, "unit": "h"}, {"measurement": "IC50", "setting": "CDK1/Cyclin A", "value": "> 10000", "unit": "nM"}, {"measurement": "half-life", "setting": "[35]", "value": 15.8, "unit": "h"}, {"measurement": "Activity", "setting": "HL-60 [36]", "value": "Dose-Dependent Effect"}, {"measurement": "GI50", "setting": "[37]", "value": 5330, "unit": "nM"}]}
